Assay results published in ChEMBL document CHEMBL4411307, “N,N'-diaryl-bishydrazones in a biphenyl platform: Broad spectrum antifungal agents” (Eur J Med Chem, 2019).
Values after ≈ are worked out from the molar mass of the structure shown. Active and inactive are the calls of the source. The rule behind the calls is not given here.

What was measured:
[1] = Selectivity index, ratio of compound concentration showing <20 to <30% hemolysis in mouse RBC to MIC for fluconazole/ITC-resistant Candida albicans ATCC MYA-1237; type: toxicity; settings: mouse red blood cells (RBC), read-out: Selectivity Index
[2] = Selectivity index, ratio of CC50 for human A549 cells to MIC for Aspergillus terreus ATCC MYA-3633; type: toxicity; settings: read-out: Selectivity Index
[3] = Selectivity index, ratio of compound concentration showing <20 to <30% hemolysis in mouse RBC to MIC for fluconazole/ITC-susceptible Candida albicans ATCC MYA-2310; type: toxicity; settings: mouse red blood cells (RBC), read-out: Selectivity Index
[4] = Hemolytic activity in mouse RBC at 1.95 ug/ml after 1 hr relative to control; type: ADME, cell-based, Erythrocyte; settings: red blood cells (erythrocytes), read-out: Activity
[5] = Selectivity index, ratio of CC50 for human A549 cells to MIC for fluconazole/ITC-susceptible Candida albicans ATCC MYA-2876; type: toxicity; settings: read-out: Selectivity Index
[6] = Selectivity index, ratio of compound concentration showing <20 to <30% hemolysis in mouse RBC to MIC for Candida krusei ATCC 6258; type: toxicity; settings: mouse red blood cells (RBC), read-out: Selectivity Index
[7] = tested on: Candida albicans; experiment: Antifungal activity against fluconazole/ITC-resistant Candida albicans ATCC MYA-1237 measured after 48 hrs by CLSI M27-A3 protocol based method; type: functional; settings: ATCC MYA-1237, 48 h
[8] = Selectivity index, ratio of CC50 for human A549 cells to MIC for Aspergillus flavus ATCC MYA-3631; type: toxicity; settings: read-out: Selectivity Index
[9] = Selectivity index, ratio of CC50 for human A549 cells to MIC for fluconazole/ITC-susceptible Candida albicans ATCC MYA-2310; type: toxicity; settings: read-out: Selectivity Index
[10] = tested on: Candida albicans; experiment: Antifungal activity against fluconazole/ITC-resistant Candida albicans ATCC 64124 measured after 48 hrs by CLSI M27-A3 protocol based method; type: functional; settings: ATCC 64124, 48 h
[11] = tested on: Candida albicans; experiment: Antifungal activity against fluconazole/ITC-susceptible Candida albicans ATCC MYA-2876 measured after 48 hrs by CLSI M27-A3 protocol based method; type: functional; settings: ATCC MYA-2876, 48 h
[12] = Selectivity index, ratio of compound concentration showing <20 to <30% hemolysis in mouse RBC to MIC for Candida glabrata ATCC 2001; type: toxicity; settings: mouse red blood cells (RBC), read-out: Selectivity Index
[13] = Hemolytic activity in mouse RBC at 62.5 ug/ml after 1 hr relative to control; type: ADME, cell-based, Erythrocyte; settings: red blood cells (erythrocytes), read-out: Activity
[14] = Selectivity index, ratio of CC50 for human A549 cells to MIC for Aspergillus nidulans ATCC 38163; type: toxicity; settings: read-out: Selectivity Index
[15] = tested on: Enterococcus; experiment: Antibacterial activity against vancomycin-resistant Enterococcus; type: functional, organism-based
[16] = tested on: Candida albicans; experiment: Antifungal activity against fluconazole/ITC-resistant Candida albicans ATCC 10231 measured after 48 hrs by CLSI M27-A3 protocol based method; type: functional; settings: ATCC 10231, 48 h
[17] = tested on: Aspergillus flavus; experiment: Antifungal activity against Aspergillus flavus ATCC MYA-3631 measured after 48 hrs by CLSI M38-A2 protocol based method; type: functional; settings: ATCC MYA-3631, 48 h
[18] = tested on: A549; experiment: Cytotoxicity against human A549 cells after 24 hrs by resazurin based assay; type: cell-based; settings: a549, 24 h
[19] = Selectivity index, ratio of compound concentration showing <20 to <30% hemolysis in mouse RBC to MIC for fluconazole/ITC-resistant Candida albicans ATCC MYA-1003; type: toxicity; settings: mouse red blood cells (RBC), read-out: Selectivity Index
[20] = tested on: Pichia kudriavzevii; experiment: Antifungal activity against Candida krusei ATCC 6258 measured after 48 hrs by CLSI M27-A3 protocol based method; type: functional; settings: ATCC 6258, 48 h
[21] = Selectivity index, ratio of CC50 for human A549 cells to MIC for fluconazole/ITC-resistant Candida albicans ATCC 10231; type: toxicity; settings: read-out: Selectivity Index
[22] = Selectivity index, ratio of compound concentration showing <20 to <30% hemolysis in mouse RBC to MIC for Aspergillus nidulans ATCC 38163; type: toxicity; settings: mouse red blood cells (RBC), read-out: Selectivity Index
[23] = tested on: Candida albicans; experiment: Antifungal activity against fluconazole/ITC-resistant Candida albicans ATCC 90819 measured after 48 hrs by CLSI M27-A3 protocol based method; type: functional; settings: ATCC 90819, 48 h
[24] = Hemolytic activity in mouse RBC at 3.9 ug/ml after 1 hr relative to control; type: ADME, cell-based, Erythrocyte; settings: red blood cells (erythrocytes), read-out: Activity
[25] = Selectivity index, ratio of CC50 for human A549 cells to MIC for Candida parapsilosis ATCC 22019; type: toxicity; settings: read-out: Selectivity Index
[26] = biological target: Voltage-gated inwardly rectifying potassium channel KCNH2 (Homo sapiens, UniProt Q12809); experiment: Inhibition of [3H]-dofetilide binding to human ERG expressed in HEK293 cell membranes measured after 1 hr by liquid scintillation counting method
[27] = Selectivity index, ratio of CC50 for human A549 cells to MIC for Candida krusei ATCC 6258; type: toxicity; settings: read-out: Selectivity Index
[28] = Hemolytic activity in mouse RBC at […] ug/ml after 1 hr relative to control; type: ADME, cell-based, Erythrocyte; settings: red blood cells (erythrocytes), read-out: Activity
[29] = Selectivity index, ratio of compound concentration showing <20 to <30% hemolysis in mouse RBC to MIC for Aspergillus flavus ATCC MYA-3631; type: toxicity; settings: mouse red blood cells (RBC), read-out: Selectivity Index
[30] = Selectivity index, ratio of compound concentration showing <20 to <30% hemolysis in mouse RBC to MIC for fluconazole/ITC-resistant Candida albicans ATCC 64124; type: toxicity; settings: red blood cells (erythrocytes), read-out: Selectivity Index
[31] = tested on: Aspergillus terreus; experiment: Antifungal activity against Aspergillus terreus ATCC MYA-3633 measured after 48 hrs by CLSI M38-A2 protocol based method; type: functional; settings: ATCC MYA-3633, 48 h
[32] = Selectivity index, ratio of CC50 for human A549 cells to MIC for fluconazole/ITC-resistant Candida albicans ATCC 90819; type: toxicity; settings: read-out: Selectivity Index
[33] = Hemolytic activity in mouse RBC at […] after 1 hr relative to control; type: ADME, cell-based, Erythrocyte; settings: red blood cells (erythrocytes), read-out: Activity; also: tested at 0.48 µg/mL
[34] = Selectivity index, ratio of CC50 for human A549 cells to MIC for fluconazole/ITC-resistant Candida albicans ATCC 64124; type: toxicity; settings: read-out: Selectivity Index
[35] = Selectivity index, ratio of CC50 for human A549 cells to MIC for Candida glabrata ATCC 2001; type: toxicity; settings: read-out: Selectivity Index
[36] = Hemolytic activity in mouse RBC at 31.3 ug/ml after 1 hr relative to control; type: ADME, cell-based, Erythrocyte; settings: red blood cells (erythrocytes), read-out: Activity
[37] = Selectivity index, ratio of compound concentration showing <20 to <30% hemolysis in mouse RBC to MIC for fluconazole/ITC-susceptible Candida albicans ATCC MYA-2876; type: toxicity; settings: red blood cells (erythrocytes), read-out: Selectivity Index
[38] = tested on: BEAS-2B; experiment: Cytotoxicity against human BEAS2B cells after 24 hrs by resazurin based assay; type: cell-based
[39] = Selectivity index, ratio of CC50 for human A549 cells to MIC for fluconazole/ITC-resistant Candida albicans ATCC MYA-1003; type: toxicity; settings: read-out: Selectivity Index
[40] = Selectivity index, ratio of compound concentration showing <20 to <30% hemolysis in mouse RBC to MIC for fluconazole/ITC-resistant Candida albicans ATCC 90819; type: toxicity; settings: red blood cells (erythrocytes), read-out: Selectivity Index
[41] = Hemolytic activity in mouse RBC at 7.8 ug/ml after 1 hr relative to control; type: ADME, cell-based, Erythrocyte; settings: red blood cells (erythrocytes), read-out: Activity
[42] = tested on: Aspergillus nidulans; experiment: Antifungal activity against Aspergillus nidulans ATCC 38163 measured after 48 hrs by CLSI M38-A2 protocol based method; type: functional; settings: ATCC 38163, 48 h
[43] = tested on: Staphylococcus aureus; experiment: Antibacterial activity against methicillin-resistant Staphylococcus aureus; type: functional, organism-based
[44] = tested on: Candida parapsilosis; experiment: Antifungal activity against Candida parapsilosis ATCC 22019 measured after 48 hrs by CLSI M27-A3 protocol based method; type: functional; settings: Lodderomyces parapsilosis, ATCC 22019, 48 h
[45] = Selectivity index, ratio of compound concentration showing <20 to <30% hemolysis in mouse RBC to MIC for fluconazole/ITC-resistant Candida albicans ATCC 10231; type: toxicity; settings: red blood cells (erythrocytes), read-out: Selectivity Index
[46] = Selectivity index, ratio of compound concentration showing <20 to <30% hemolysis in mouse RBC to MIC for Aspergillus terreus ATCC MYA-3633; type: toxicity; settings: mouse red blood cells (RBC), read-out: Selectivity Index
[47] = Selectivity index, ratio of compound concentration showing <20 to <30% hemolysis in mouse RBC to MIC for Candida parapsilosis ATCC 22019; type: toxicity; settings: mouse red blood cells (RBC), read-out: Selectivity Index
[48] = tested on: Listeria monocytogenes; experiment: Antibacterial activity against Listeria monocytogenes; type: functional, organism-based
[49] = Selectivity index, ratio of CC50 for human A549 cells to MIC for fluconazole/ITC-resistant Candida albicans ATCC MYA-1237; type: toxicity; settings: read-out: Selectivity Index

Chain of Voltage-gated inwardly rectifying potassium channel KCNH2 (Q12809 whole entry): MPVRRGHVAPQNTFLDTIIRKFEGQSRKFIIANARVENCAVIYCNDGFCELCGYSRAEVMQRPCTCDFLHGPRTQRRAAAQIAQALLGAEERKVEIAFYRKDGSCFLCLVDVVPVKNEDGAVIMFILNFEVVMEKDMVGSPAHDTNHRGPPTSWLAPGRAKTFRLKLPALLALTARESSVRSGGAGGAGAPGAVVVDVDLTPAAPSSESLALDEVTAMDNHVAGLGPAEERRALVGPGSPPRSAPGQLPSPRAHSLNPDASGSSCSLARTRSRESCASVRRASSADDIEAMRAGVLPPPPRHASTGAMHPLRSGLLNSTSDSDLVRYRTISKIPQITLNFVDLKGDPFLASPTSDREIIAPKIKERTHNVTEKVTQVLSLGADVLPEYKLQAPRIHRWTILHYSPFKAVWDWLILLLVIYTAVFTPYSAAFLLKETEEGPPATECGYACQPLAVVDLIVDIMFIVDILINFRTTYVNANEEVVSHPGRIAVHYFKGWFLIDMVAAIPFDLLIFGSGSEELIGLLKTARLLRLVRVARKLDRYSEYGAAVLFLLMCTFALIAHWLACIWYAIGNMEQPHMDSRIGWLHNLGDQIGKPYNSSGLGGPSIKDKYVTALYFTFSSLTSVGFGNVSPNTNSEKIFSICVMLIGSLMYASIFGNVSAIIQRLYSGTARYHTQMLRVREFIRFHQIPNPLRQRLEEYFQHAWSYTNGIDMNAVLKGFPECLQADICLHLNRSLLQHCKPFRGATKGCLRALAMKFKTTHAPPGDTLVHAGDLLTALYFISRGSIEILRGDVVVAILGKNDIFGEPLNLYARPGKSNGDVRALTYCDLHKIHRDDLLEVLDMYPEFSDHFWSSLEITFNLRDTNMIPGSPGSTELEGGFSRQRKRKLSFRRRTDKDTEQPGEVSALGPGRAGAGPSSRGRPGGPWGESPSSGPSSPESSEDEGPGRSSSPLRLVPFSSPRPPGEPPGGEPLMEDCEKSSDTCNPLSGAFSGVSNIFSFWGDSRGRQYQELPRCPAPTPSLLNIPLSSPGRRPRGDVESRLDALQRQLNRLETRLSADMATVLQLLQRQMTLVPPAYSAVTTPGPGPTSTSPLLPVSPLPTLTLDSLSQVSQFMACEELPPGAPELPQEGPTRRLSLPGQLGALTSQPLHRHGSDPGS

COc1ccc(N/N=C/c2ccc(-c3cccc(/C=N/Nc4ccc(OC)cc4)c3)cc2)cc1
selectivity ratio [1]: 1 to 32 | selectivity ratio [2]: 0.6 | selectivity ratio [3]: 1 to 32 | hemolysis at 1 h, 1.95 ug/ml [4]: 4.5% | selectivity ratio [5]: 4.7 | selectivity ratio [6]: 1 to 32 | MIC [7]: 3.9 µg/mL (≈ 8.66 µM) | selectivity ratio [8]: 0.6 | selectivity ratio [9]: 2.3 | MIC [10]: 15.6 µg/mL (≈ 34.6 µM) | MIC [11]: 3.9 µg/mL (≈ 8.66 µM) | selectivity ratio [12]: 1 to 32 | hemolysis at 1 h, 62.5 ug/ml [13]: 18.8% | selectivity ratio [14]: 0.6 | Activity [15]: inactive | MIC [16]: 1.95 µg/mL (≈ 4.33 µM) | MIC [17]: > 31.3 µg/mL | CC50 [18]: 18.2 µg/mL (≈ 40.4 µM) | selectivity ratio [19]: 1 to 32 | MIC [20]: 3.9 µg/mL (≈ 8.66 µM) | selectivity ratio [21]: 9.3 | selectivity ratio [22]: 1 to 32 | MIC [23]: 3.9 µg/mL (≈ 8.66 µM) | hemolysis at 1 h, 3.9 ug/ml [24]: 3% | selectivity ratio [25]: 0.6 | IC50 [26]: > 30 µM | selectivity ratio [27]: 4.7 | hemolysis at 1 h, 15.6 ug/ml ([28]; at 15.6 µg/mL): 7.8% | hemolysis at 1 h, 0.975 ug/ml [28]: 2.6% | selectivity ratio [29]: 1 to 32 | selectivity ratio [30]: 1 to 32 | MIC [31]: > 31.3 µg/mL | selectivity ratio [32]: 4.7 | hemolysis at 1 h, […] [33]: 0% | selectivity ratio [34]: 1.2 | selectivity ratio [35]: 2.3 | hemolysis at 1 h, 31.3 ug/ml [36]: 9.6% | selectivity ratio [37]: 1 to 32 | CC50 [38]: 14.1 µg/mL (≈ 31.3 µM) | selectivity ratio [39]: 2.3 | selectivity ratio [40]: 1 to 32 | hemolysis at 1 h, 7.8 ug/ml [41]: 2.6% | MIC [42]: 31.3 µg/mL (≈ 69.5 µM) | Activity [43]: inactive | MIC [44]: > 31.3 µg/mL | selectivity ratio [45]: 1 to 32 | selectivity ratio [46]: 1 to 32 | selectivity ratio [47]: 1 to 32 | Activity [48]: inactive | selectivity ratio [49]: 4.7
